Experimental data taken from PMC7811009, “Oxytocin modulates local topography of human functional connectome in healthy men at rest” (Communications Biology, 2021).

Assays:
[1] = system: human functional connectome at rest; test: Resting-state BOLD-fMRI: mean brain-wide functional connectivity (macroscale); format: in vivo; settings: repeated measures one-way ANOVA, F(2.271, 34.070) = 0.774, p = 0.484
Method: (§1) Each experimental session began with the treatment administration protocol that lasted about 22 min in total (Fig. 8, lower panel). After drug administration, participants were guided to the MRI scanner, where eight pulsed continuous arterial spin labelling scans (each lasting approx. eight minutes) were acquired, spanning 15–104 min post-dosing (data reported elsewhere[11]). The 8-min resting state BOLD-fMRI scan reported herein was obtained at about 57 ± 3.38 min post-dosing. Participants were instructed to lie still and maintain their gaze on a centrally placed fixation cross during scanning. We assessed participants’ levels of alertness (anchors: alert-drowsy) and excitement (anchors: excited-calm) using visual analogue scales (0–100) at three different time-points during the scanning session to evaluate subjective drug effects across time (data reported elsewhere[11]).
MRI data were acquired on a 3 T MR750 system (GE Healthcare, Waukesha, Wisconsin) with a 32-channel head coil. Functional data was acquired using a shot multi-echo echo planar imaging (EPI) sequence (TR = 2500 ms, TE’s = 12, 28, 44 and 60 ms, FA = 80°, FOV = 240 × 240 mm^2, Matrix = 64 × 64, Slice thickness = 3 mm, 32 continuous descending axial slices, resolution = 3.75 × 3.75 × 3 mm). […] The resting state fMRI scan lasted 8 min 10 s, with collection of a total of 192 volumes for each echo. […]

[2] = system: human functional connectome at rest; test: Resting-state BOLD-fMRI, graph theory: nodal betweenness-centrality (mesoscale); 40 IU intranasal (spray/nebuliser) or 10 IU intravenous, about 57 min post-dosing, 16 healthy men; format: in vivo; settings: post-hoc paired t-tests, FDR
Method: as §1
We used the CONN functional connectivity toolbox[97] to generate brain-wide functional connectivity matrices for each subject/session. […] The default atlas of the CONN toolbox includes 132 non-overlapping ROIs spanning cortical and subcortical areas and the cerebellum using a combination of the cortical and subcortical areas from the FSL Harvard-Oxford atlas and of the cerebellar areas of the Automatic Anatomical Labelling atlas (Supplementary data 1 for a detailed description). […] Finally, we normalized our correlation measures to z-scores using the Fisher’s r-z transform per subject/session.
We then used our z-transformed connectivity matrices to construct brain graphs representing a functional connectivity network for each subject/session. We used an undirected signed weighted approach in which we kept information about the sign and weight of each of the connections between the nodes (ROIs) of our network, without making assumptions about the direction of this relationship. These connectivity matrices represent fully connected networks, where each node corresponds to each of the ROIs we used to build the functional connectivity matrices and each edge represents the z-transformed value of functional connectivity between a pair of nodes. […] We used the fully weighted networks to calculate equi-sparse networks by retaining a fixed percentage (K) of the total amount of possible edges. In order to determine systematic pharmacological effects on the network’s topological organization that are not dependent on the choice of an arbitrary threshold, we chose a range of sparsity thresholds from 5 to 34%, with steps of 1%, based on previous evidence showing the characteristic small-world behaviour of human brain networks is most consistently observed for this range[30]. For each network and sparsity level, we used the MATLAB functions provided with the Brain Connectivity Toolbox[16] to compute four global and regional network metrics: global efficiency, node degree, local efficiency and betweenness-centrality. Details on the calculation of each of these metrics have been described elsewhere. The combination of these four metrics allows us to test for treatment effects on connectivity at both global and regional levels, taking into account complementary aspects of functional integration of information exchange within the brain network. […]
For each of the graph metrics analysed, we summarized the different values over the range of thresholds using the area under the curve (AUC), instead of applying multiple testing for each metric/threshold. […]

[3] = system: amygdala/parahippocampal gyrus and anterior cingulate; settings: same dose of intravenous oxytocin (10 IU), same cohort; cited from earlier work
From the text: Our second key finding was the observation that the regional effects of exogenous oxytocin, compared to placebo, vary as a function of the route/method of administration. Particularly striking was the observation that the intravenous administration of oxytocin induced widespread changes in regional functional connectivity across many areas potentially relevant to explaining the effects of intranasal oxytocin on human behaviour and which have been classically ascribed to direct nose-to-brain transport. One of these areas is the amygdala, where we found decreased betweenness-centrality after int ...

CC[C@H](C)[C@@H]1NC(=O)[C@H](Cc2ccc(O)cc2)NC(=O)[C@@H](N)CSSC[C@@H](C(=O)N2CCC[C@H]2C(=O)N[C@@H](CC(C)C)C(=O)NCC(N)=O)NC(=O)[C@H](CC(N)=O)NC(=O)[C@H](CCC(N)=O)NC1=O [oxytocin]
Differences in mean functional connectivity across the four treatment conditions [1]: no significant differences
Nodes with decreased betweenness-centrality compared to placebo ([2]; intravenous, 10 IU): decreased the betweenness-centrality of the right amygdala and the anterior parahipoccampal gyrus
Nodes with increased betweenness-centrality compared to placebo ([2]; intravenous, 10 IU): increased the betweenness-centrality of the right and left occipital poles, left postcentral gyrus, right supramarginal gyrus and left and right cerebellum (areas 4–5 and area 10, respectively)
Nodes with increased betweenness-centrality compared to placebo ([2]; nebuliser, 40 IU intranasal): increased the betweenness-centrality of the temporo-occipital area of the left middle temporal gyrus and the left cerebellum (area 7)
Nodes with decreased betweenness-centrality compared to placebo ([2]; spray, 40 IU intranasal): decreased the betweenness-centrality of the precuneus, right posterior supramarginal and middle temporal gyri, the left anterior middle temporal gyrus and the right cerebellum (area 9)
Nodes with increased betweenness-centrality compared to placebo ([2]; spray, 40 IU intranasal): increased the betweenness-centrality of the right orbitofrontal cortex, left lateral occipital cortex, right temporal occipital fusiform cortex and left occipital pole
Effect on rCBF [3]: decreases rCBF in the amygdala/parahippocampal gyrus and in the anterior cingulate
